Square brackets hold non-standard residues; d marks the D form. Ends that are not written are not given here. pS = N[C@@H](COP(=O)(O)O)C(=O)O
Columns and labels:
[1] = test system: CD8^+ T cells (PBMCs); test: Intracellular cytokine staining (ICS) of PBMCs after 7 days of stimulation with MHC-I-pP (healthy donors, HH patients); format: cell-based, human; details: for Reactive CD8^+ T cell population, HH2: HH patient HH2; for Reactive CD8^+ T cell population, HH3: HH patient HH3; for Reactive CD8^+ T cell population, HH6: HH patient HH6; for Reactive CD8^+ T cell population, HH8: HH patient HH8; for Reactive CD8^+ T cell population, HD1: Healthy donor HD1; for Reactive CD8^+ T cell population, HD4: Healthy donor HD4; for Reactive CD8^+ T cell population, HD5: Healthy donor HD5; for Reactive CD8^+ T cell population, HH11: HH patient HH11
How it was run: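 PBMCs or liver lymphocytes from HLA-A*0201-positive healthy donors and hereditary hemochromatosis patients were stimulated for 7 days with HLA-A*0201-restricted phosphopeptides and no added cytokines. After exclusion of doublets and dead cells with a fixable viability dye, CD3^+CD8^+ cells were analysed by intracellular staining for IFN-γ and TNF-α, plus CD107a where needed.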

[2] = test system: expanded TIL / IHL cultures; test: ICS for MHC-I-pP reactivity of liver-derived lymphocyte cultures after unspecific rapid expansion protocol (REP); format: cell-based, human
[3] = test system: expanded lymphocyte cultures from deceased donor livers, cirrhotic livers and HCC; test: ICS for MHC-I-pP reactivity of liver-derived lymphocyte cultures after phosphopeptide-specific expansion; format: cell-based, human; details: for ppCTL response, Deceased Donor Liver Do 2 / ppCTL response, Deceased Donor Liver Do 3 / ppCTL response, Deceased Donor Liver Do 4 / ppCTL response, Deceased Donor Liver Do 6 / ppCTL response, End-stage Liver Cirrhosis IHL 11 / ppCTL response, End-stage Liver Cirrhosis IHL 12 / ppCTL response, End-stage Liver Cirrhosis IHL 13 / ppCTL response, End-stage Liver Cirrhosis IHL 15 / ppCTL response, HCC Distal HCC 1 / ppCTL response, HCC Tumor HCC 1 / ppCTL response, HCC Distal HCC 4 / ppCTL response, HCC Distal HCC 9 / ppCTL response, HCC Tumor HCC 9 / ppCTL response, HCC Distal HCC 12: pP-specifically expanded culture; for ppCTL response, HCC Distal HCC 1: HCC 1 Distal; for ppCTL response, HCC Tumor HCC 1: HCC 1 Tumor; for ppCTL response, HCC Distal HCC 4: HCC 4 Distal; for ppCTL response, HCC Distal HCC 9: HCC 9 Distal; for ppCTL response, HCC Tumor HCC 9: HCC 9 Tumor; for ppCTL response, HCC Distal HCC 12: HCC 12 Distal
[4] = test system: unexpanded lymphocyte cultures (CD8^+ T cells); test: ICS for MHC-I-pP reactivity of lymphocyte cultures without expansion (Table 23, No Expansion)

Substance | Reactive CD8^+ T cell population, HH2 [1] | Reactive CD8^+ T cell population, HH3 [1] | Reactive CD8^+ T cell population, HH6 [1] | Reactive CD8^+ T cell population, HH8 [1] | Reactive CD8^+ T cell population, HD1 [1] | Reactive CD8^+ T cell population, HD4 [1] | Reactive CD8^+ T cell population, HD5 [1] | Reactive CD8^+ T cells, Non-specific Expansion, Do2 [2] | Reactive CD8^+ T cells, Non-specific Expansion, Do4 [2] | Reactive CD8^+ T cells, Non-specific Expansion, HH6 [2] | Reactive CD8^+ T cells, pP-specific Expansion, Do2 [3] | Reactive CD8^+ T cells, pP-specific Expansion, Do4 [3] | Reactive CD8^+ T cells, pP-specific Expansion, HH6 [3] | ppCTL response, Deceased Donor Liver Do 2 [3] | ppCTL response, Deceased Donor Liver Do 3 [3] | ppCTL response, Deceased Donor Liver Do 4 [3] | ppCTL response, Deceased Donor Liver Do 6 [3] | ppCTL response, End-stage Liver Cirrhosis IHL 11 [3] | ppCTL response, End-stage Liver Cirrhosis IHL 12 [3] | ppCTL response, End-stage Liver Cirrhosis IHL 13 [3] | further results
KIAsEIAQL: CASKIN2 phosphopeptide, HLA-A*0201 (KIA[pS]EIAQL; listed as Homo sapiens) | 0 (<0.25% reactive CD8^-+ T cells) | 0 (<0.25% reactive CD8^-+ T cells) | 1 (0.25-2.5% reactive CD8^-+ T cells) | 0 (<0.25% reactive CD8^-+ T cells) | 0 (<0.25% reactive CD8^-+ T cells) | 0 (<0.25% reactive CD8^-+ T cells) | 0 (<0.25% reactive CD8^-+ T cells) | 1 (0.25-2.5% reactive CD8^-+ T cells) | 0 (<0.25% reactive CD8^-+ T cells) | 1 (0.25-2.5% reactive CD8^-+ T cells) | 0 (<0.25% reactive CD8^-+ T cells) | 0 (<0.25% reactive CD8^-+ T cells) | 0 (<0.25% reactive CD8^-+ T cells) | 0 (<0.25% reactive CD8-+ T cells) | 0 (<0.25% reactive CD8-+ T cells) | 1 (0.25-2.5% reactive CD8-+ T cells) | 1 (0.25-2.5% reactive CD8-+ T cells) | 0 (<0.25% reactive CD8-+ T cells) | 0 (<0.25% reactive CD8-+ T cells) | 0 (<0.25% reactive CD8-+ T cells) | ppCTL response, End-stage Liver Cirrhosis IHL 15 [3]: 0 (<0.25% reactive CD8-+ T cells); ppCTL response, HCC Distal HCC 1 [3]: 0 (<0.25% reactive CD8-+ T cells); ppCTL response, HCC Tumor HCC 1 [3]: 0 (<0.25% reactive CD8-+ T cells); ppCTL response, HCC Distal HCC 4 [3]: 0 (<0.25% reactive CD8-+ T cells); ppCTL response, HCC Distal HCC 9 [3]: 0 (<0.25% reactive CD8-+ T cells); ppCTL response, HCC Tumor HCC 9 [3]: 0 (<0.25% reactive CD8-+ T cells); ppCTL response, HCC Distal HCC 12 [3]: 0 (<0.25% reactive CD8-+ T cells); Reactive CD8^+ T cells, No Expansion, HH6 [4]: 1 (0.25-2.5% reactive CD8^-+ T cells)
SMTRsPPRV: SRSF8 phosphopeptide, HLA-A*0201 (SMTR[pS]PPRV; listed as Homo sapiens) | 0 (<0.25% reactive CD8^-+ T cells) | 0 (<0.25% reactive CD8^-+ T cells) | 0 (<0.25% reactive CD8^-+ T cells) | 0 (<0.25% reactive CD8^-+ T cells) | 0 (<0.25% reactive CD8^-+ T cells) | 0 (<0.25% reactive CD8^-+ T cells) | 0 (<0.25% reactive CD8^-+ T cells) | 0 (<0.25% reactive CD8^-+ T cells) | 0 (<0.25% reactive CD8^-+ T cells) | 0 (<0.25% reactive CD8^-+ T cells) | 0 (<0.25% reactive CD8^-+ T cells) | 0 (<0.25% reactive CD8^-+ T cells) | 0 (<0.25% reactive CD8^-+ T cells) | 1 (0.25-2.5% reactive CD8-+ T cells) | 0 (<0.25% reactive CD8-+ T cells) | 0 (<0.25% reactive CD8-+ T cells) | 0 (<0.25% reactive CD8-+ T cells) | 0 (<0.25% reactive CD8-+ T cells) | 0 (<0.25% reactive CD8-+ T cells) | 0 (<0.25% reactive CD8-+ T cells) | Reactive CD8^+ T cell population, HH10 ([1]; HH patient HH10): 0 (<0.25% reactive CD8^-+ T cells); Reactive CD8^+ T cell population, HH11 [1]: 0 (<0.25% reactive CD8^-+ T cells); Reactive CD8^+ T cell population, HD2 ([1]; Healthy donor HD2): 0 (<0.25% reactive CD8^-+ T cells); Reactive CD8^+ T cell population, HD3 ([1]; Healthy donor HD3): 0 (<0.25% reactive CD8^-+ T cells); ppCTL response, End-stage Liver Cirrhosis IHL 15 [3]: 6 (>20% reactive CD8-+ T cells); ppCTL response, HCC Distal HCC 1 [3]: 0 (<0.25% reactive CD8-+ T cells); ppCTL response, HCC Tumor HCC 1 [3]: 0 (<0.25% reactive CD8-+ T cells); ppCTL response, HCC Distal HCC 4 [3]: 0 (<0.25% reactive CD8-+ T cells); ppCTL response, HCC Distal HCC 9 [3]: 0 (<0.25% reactive CD8-+ T cells); ppCTL response, HCC Tumor HCC 9 [3]: 0 (<0.25% reactive CD8-+ T cells); ppCTL response, HCC Distal HCC 12 [3]: 0 (<0.25% reactive CD8-+ T cells); Reactive CD8^+ T cells, No Expansion, Do4 ([4]; Do4): 4 (7.5-10% reactive CD8^-+ T cells); Reactive CD8^+ T cells, No Expansion, HH6 [4]: 0 (<0.25% reactive CD8^-+ T cells)
RLSsPLHFV: FAM134A phosphopeptide, HLA-A*0201 (RLS[pS]PLHFV; listed as Homo sapiens) | 1 (0.25-2.5% reactive CD8^-+ T cells) | 0 (<0.25% reactive CD8^-+ T cells) | 0 (<0.25% reactive CD8^-+ T cells) | 0 (<0.25% reactive CD8^-+ T cells) | 0 (<0.25% reactive CD8^-+ T cells) | 0 (<0.25% reactive CD8^-+ T cells) | 0 (<0.25% reactive CD8^-+ T cells) | 0 (<0.25% reactive CD8^-+ T cells) | 0 (<0.25% reactive CD8^-+ T cells) | 0 (<0.25% reactive CD8^-+ T cells) | 0 (<0.25% reactive CD8^-+ T cells) | 0 (<0.25% reactive CD8^-+ T cells) | 0 (<0.25% reactive CD8^-+ T cells) | 0 (<0.25% reactive CD8-+ T cells) | 0 (<0.25% reactive CD8-+ T cells) | 0 (<0.25% reactive CD8-+ T cells) | 0 (<0.25% reactive CD8-+ T cells) | 0 (<0.25% reactive CD8-+ T cells) | 0 (<0.25% reactive CD8-+ T cells) | 0 (<0.25% reactive CD8-+ T cells) | Reactive CD8^+ T cell population, HH11 [1]: 0 (<0.25% reactive CD8^-+ T cells); ppCTL response, End-stage Liver Cirrhosis IHL 15 [3]: 0 (<0.25% reactive CD8-+ T cells); ppCTL response, HCC Distal HCC 1 [3]: 0 (<0.25% reactive CD8-+ T cells); ppCTL response, HCC Tumor HCC 1 [3]: 0 (<0.25% reactive CD8-+ T cells); ppCTL response, HCC Distal HCC 4 [3]: 0 (<0.25% reactive CD8-+ T cells); ppCTL response, HCC Distal HCC 9 [3]: 0 (<0.25% reactive CD8-+ T cells); ppCTL response, HCC Tumor HCC 9 [3]: 0 (<0.25% reactive CD8-+ T cells); ppCTL response, HCC Distal HCC 12 [3]: 0 (<0.25% reactive CD8-+ T cells); Reactive CD8^+ T cells, No Expansion, HH6 [4]: 0 (<0.25% reactive CD8^-+ T cells)

Source: patent US20190374627A1, “TARGET PEPTIDES FOR CANCER THERAPY AND DIAGNOSTICS” (priority 2016, published 2019)
